Laboratory results taken from patent US11660287B2, “Agent for preventing or treating spinocerebellar ataxia” (FUJIFILM Toyama Chemical Co., Ltd., priority 2017, dated 2023).

Tested on: Mild to Moderate AD Patients
Experiment: Phase II placebo-controlled trial: change in brain volume by volumetric MRI (vMRI) at week 52
Type: in vivo, human
Conditions: for Change in hippocampus volume, least square means (standard error) / Change in whole brain volume, least square means (standard error): mixed-effect model
Description: Test Example 1 Multicenter Randomized Double-Blind Phase II Placebo-Controlled Trial for Assessing Effectiveness and Safety of Compound A in Mild to Moderate AD Patients
Subject (selection criteria): Patients were screened in a period from 42 days before treatment assignment to the assignment based on the following selection criteria.
• Patients who were probable AD and are 55 years old or older and 85 years old or younger at the time of obtaining consent of screening. • Patients with an MMSE score of 12 to 22 at the time of screening • Patients with a Modified Hachinski Ischemia Scale score of 4 or less • Patients who have been treated with a donepezil hydrochloride or rivastigmine transdermal system for at least 4 months before the baseline and with a stable dose thereof for 3 months before the baseline. • In the case of patients who have received memantine in addition to being treated with a donepezil hydrochloride or rivastigmine transdermal system, patients who have been treated with memantine for at least 4 months before the baseline and with a stable dose thereof for 3 months before the baseline. • Patients whose brain MRI or CT results match AD at the time of screening Organization of groups: Patients matched (484 patients) were randomly divided into the following 3 groups and the trial was started. (1) High dose group: 224 mg of a test compound (160 mg in terms of Compound A) was orally administered once a day for 4 weeks and then 448 mg of a test compound (320 mg in terms of Compound A) was orally administered once a day for 48 weeks (158 patients) (2) Low dose group: 224 mg of a test compound (160 mg in terms of Compound A) was orally administered once a day for 52 weeks (166 patients) (3) Placebo group: placebo was orally administered once a day for 52 weeks (158 patients) Method of Assessment: Volumetric MRI
Brain volume of subjects was measured by vMRI scan at the screening and after 52 weeks, and the volume change of the whole brain and the hippocampus of the subjects were quantified to assess brain atrophy based on the change from the screening.
Furthermore, volume change of the whole brain and 101 areas (obtained by dividing the areas existing in both the left brain and the right brain of the Brodmann areas (1 to 52) into 101 areas) in each subject was quantified to assess brain atrophy based on the change from the screening.
Changes in the volume of the whole brain and the hippocampus after 52 weeks from the baseline were compared between the high dose group and the placebo group, and between the low dose group and the placebo group based on Mixed-effect Models. For models, the treatment groups were included as a fixed effect, age, baseline of the respective brain volumes (the whole brain or the hippocampus), baseline of MMSE and ApoE4 genotype (positive/negative) were included as covariates, and trial sites were included as a random effect.
Furthermore, changes in the respective volumes of the whole brain and the 101 areas after 52 weeks from the baseline were compared between the high dose group and the placebo group, and between the low dose group and the placebo group.

[1] = High dose group (160 mg for 4 weeks, then 320 mg in terms of Compound A, oral once a day, for 48 weeks), week 52 vs baseline, vMRI
[2] = Low dose group (160 mg in terms of Compound A, oral once a day, 52 weeks), week 52 vs baseline, vMRI

`OC1CN(CCCOCCc2ccc3sccc3c2)C1` [Compound A, 1-(3-(2-(1-benzothiophen-5-yl)ethoxy)propyl)azetidin-3-ol] was tested, and the “Change in the volume of the whole brain and the hippocampus compared with placebo group (in words)” value (Compound A group vs placebo group, week 52 from baseline) was “volume reduction tended to be smaller”, the “Volume reduction of the cerebellum compared to the placebo group (in words)” value (Compound A high dose group) was “same tendency as in the low dose group was observed” and the “Difference in effects on the change in hippocampal volume vs placebo group (in words)” value (Compound A low dose group vs placebo group, week 52) was “statistically significant”. For the same compound, the “Volume reduction of the cerebellum compared to the placebo group (in words)” value (Compound A low dose group, whole brain and 101 areas, Nos. 1, 2, 4 and 8 in Table 2) was “particularly tended to be suppressed”, the “Change in hippocampus volume, least square means (standard error)” value [1] was −0.31(0.057) mL and the “Change in whole brain volume, least square means (standard error)” value [1] was −20.05(3.821) mL. The “Change in hippocampus volume, difference from placebo group (95% confidence interval)” value (High dose group, week 52 vs baseline, p-value 0.0996) was 0.08(−0.02, 0.18) mL, the “Change in whole brain volume, difference from placebo group (95% confidence interval)” value (High dose group, week 52 vs baseline, p-value 0.2581) was 3.94(−2.91, 10.79) mL and the “Change in hippocampus volume, least square means (standard error)” value [2] was −0.27(0.053) mL. The “Change in whole brain volume, least square means (standard error)” value [2] was −21.37(3.582) mL, the “Change in hippocampus volume, difference from placebo group (95% confidence interval)” value (Low dose group, week 52 vs baseline, p-value 0.0106) was 0.12(0.03, 0.22) mL and the “Change in whole brain volume, difference from placebo group (95% confidence interval)” value (Low dose group, week 52 vs baseline, p-value 0.4456) was 2.63(−4.15, 9.40) mL. The “Change in brain volume, mean value: ctx-lh-parsorbitalis” value (Low dose group, week 52 vs baseline, vMRI, placebo −0.5499, p 0.0323) was 0.1244, the “Change in brain volume, mean value: Left-Cerebellum-Cortex” value (Low dose group, week 52 vs baseline, vMRI, placebo −0.6899, p 0.0005) was −0.2695 and the “Change in brain volume, mean value: Right-Cerebellum-Cortex” value (Low dose group, week 52 vs baseline, vMRI, placebo −0.7248, p 0.0090) was −0.3209. For the same compound, the “Change in brain volume, mean value: Right-Cerebral-White-Matte” value (Low dose group, week 52 vs baseline, vMRI, placebo −1.4416, p 0.0157) was −1.0753, the “Change in brain volume, mean value: ctx-rh-lateral orbitofrontal” value (Low dose group, week 52 vs baseline, vMRI, placebo −1.5322, p 0.0146) was −0.8995 and the “Change in brain volume, mean value: Left-Cerebral-White-Matter” value (Low dose group, week 52 vs baseline, vMRI, placebo −1.5679, p 0.0215) was −1.2418. For the same compound, the “Change in brain volume, mean value: Whole_brain” value (Low dose group, week 52 vs baseline, vMRI, placebo −1.5952, p 0.0054) was −1.3142, the “Change in brain volume, mean value: Right-Cerebellum-White-Matter” value (Low dose group, week 52 vs baseline, vMRI, placebo −1.6919, p 0.0014) was −0.89 and the “Change in brain volume, mean value: Left-Cerebellum-White-Matter” value (Low dose group, week 52 vs baseline, vMRI, placebo −2.0490, p 0.0001) was −0.9201. For the same compound, the “Change in brain volume, mean value: ctx-lh-insula” value (Low dose group, week 52 vs baseline, vMRI, placebo −2.6470, p 0.0030) was −1.9609, the “Change in brain volume, mean value: ctx-rh-insula” value (Low dose group, week 52 vs baseline, vMRI, placebo −2.6510, p 0.0056) was −1.9976 and the “Change in brain volume, mean value: ctx-rh-superior temporal” value (Low dose group, week 52 vs baseline, vMRI, placebo −2.9861, p 0.0013) was −2.1332. The “Change in brain volume, mean value: Left-Hippocampus” value (Low dose group, week 52 vs baseline, vMRI, placebo −3.0880, p 0.0232) was −2.3402, the “Change in brain volume, mean value: ctx-rh-inferior temporal” value (Low dose group, week 52 vs baseline, vMRI, placebo −3.2601, p 0.0124) was −2.6157 and the “Change in brain volume, mean value: ctx-lh-entorhinal” value (Low dose group, week 52 vs baseline, vMRI, placebo −3.8173, p 0.0195) was −2.97.
